Values after ≈ are worked out from the molar mass of the structure shown.
Legend:
Type in all cases: functional
Settings in all cases: read-out: ED50 (the source's name)
[1] = test system: P388; experiment: Cytotoxicity against mouse P388 cells
[2] = test system: KB; experiment: Cytotoxicity against human KB cells
[3] = test system: A549; experiment: Cytotoxicity against human A549 cells
[4] = test system: HT-29; experiment: Cytotoxicity against human HT29 cells

Row | Structure (SMILES) | EC50 [1] [µg/mL] | EC50 [2] [µg/mL] | EC50 [3] [µg/mL] | EC50 [4] [µg/mL]
1 | CC(=O)O[C@H]1C[C@@H]2O[C@]2(C)[C@@H]2[C@@H](OC(C)=O)[C@]34O[C@]3(C)C(=O)O[C@H]4/C=C(/C)CC[C@@H](OC(C)=O)[C@@]12C | 1.59 (≈ 3.14 µM) | 24.4 (≈ 48.3 µM) | 17.4 (≈ 34.3 µM) | 10.1 (≈ 19.9 µM)
2 | CC(=O)O[C@H]1C[C@@H]2O[C@]2(C)[C@@H]2[C@@H](O)[C@]34O[C@]3(C)C(=O)O[C@H]4/C=C(/C)CC[C@@H](OC(C)=O)[C@@]12C | 0.61 (≈ 1.31 µM) | > 50 | > 50 | 6.96 (≈ 15 µM)
3 | CC(=O)O[C@H]1CC=C(C)[C@@H]2[C@@H](O)[C@]34O[C@]3(C)C(=O)O[C@H]4/C=C(/C)CC[C@@H](OC(C)=O)[C@@]12C | 0.28 (≈ 0.624 µM) | 0.27 (≈ 0.602 µM) | 10.3 (≈ 23.1 µM) | 8.27 (≈ 18.4 µM)
4 | CC(=O)O[C@H]1CC=C(C)[C@@H]2[C@@H](OC(C)=O)[C@]34O[C@]3(C)C(=O)O[C@H]4/C=C(/C)CC[C@@H](OC(C)=O)[C@@]12C [BRIAREOLIDE H] | 3.1 (≈ 6.32 µM) | > 50 | > 50 | 0.29 (≈ 0.591 µM)
